Consider 14 compounds from patent publication US10428044B2, “3-amino-1,5,6,7-tetrahydro-4H-indol-4-ones” (Bayer Pharma Aktiengesellschaft, priority 2014, dated 2019).

The target of this test is (recombinant) catalytic domain of human Bub1 (amino acids 704-1085) (Homo sapiens (Human), UniProt O43683). The test is described as follows: Bub1 kinase assay (TR-FRET). The test is classed as biochemical. The note with it: ATP 10 μM final, peptide substrate 1 μM final, 60 min at 22° C., read-out: Biological Assay: Bub1 kinase assay median IC50. An outline of the steps:
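Compounds were serially diluted 1:3.4 from 2 mM DMSO stocks and incubated with the enzyme reaction for 60 min at 22° C. The reaction was stopped with EDTA, and biotinylated peptide phosphorylation was read by TR-FRET using Eu anti-mouse IgG, anti-phosphoserine antibody and streptavidin-XL665. IC50 was fitted by 4-parameter logistic to inhibition normalized to no-inhibitor and no-enzyme controls.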

Chain of (recombinant) catalytic domain of human Bub1 (amino acids 704-1085) (O43683 704-1085): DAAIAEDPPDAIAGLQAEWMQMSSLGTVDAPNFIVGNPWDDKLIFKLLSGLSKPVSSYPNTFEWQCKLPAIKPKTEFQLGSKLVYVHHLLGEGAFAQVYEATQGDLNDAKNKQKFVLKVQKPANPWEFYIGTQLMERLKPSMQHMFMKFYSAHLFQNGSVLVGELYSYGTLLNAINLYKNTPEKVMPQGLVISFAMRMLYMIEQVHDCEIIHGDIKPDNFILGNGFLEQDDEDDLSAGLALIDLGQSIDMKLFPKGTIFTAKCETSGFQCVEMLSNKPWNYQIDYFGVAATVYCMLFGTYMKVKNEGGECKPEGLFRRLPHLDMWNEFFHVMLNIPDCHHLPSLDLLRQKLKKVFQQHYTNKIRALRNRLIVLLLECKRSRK

For `CCCNC(=S)Nc1cc(-c2[nH]c3c(c2Nc2ccccc2)C(=O)CCC3)ccn1` [Example 399, 1-{4-[4-oxo-3-(phenylamino)-4,5,6,7-tetrahydro-1H-indol-2-yl]pyridin-2-yl}-3-propylthiourea], the IC50 was determined as 292 nM.

Consider `CC1(C)CC(=O)c2c([nH]c(-c3ccnc(C(F)F)c3)c2Nc2ccccc2)C1` [Example 400, 2-[2-(difluoromethyl)pyridin-4-yl]-6,6-dimethyl-3-(phenylamino)-1,5,6,7-tetrahydro-4H-indol-4-one], for which the IC50 came out at 157 nM.

Consider `O=C1CCCc2[nH]c(-c3ccnc(C(F)F)c3)c(Nc3ccccc3)c21` [Example 401, 2-[2-(difluoromethyl)pyridin-4-yl]-3-(phenylamino)-1,5,6,7-tetrahydro-4H-indol-4-one], for which the IC50 turned out to be 354 nM.

For the compound `CC1(C)CC(=O)c2c([nH]c(-c3ccnc(C(F)F)c3)c2Nc2cccc(F)c2)C1` [Example 402, 2-[2-(difluoromethyl)pyridin-4-yl]-3-[(3-fluorophenyl)amino]-6,6-dimethyl-1,5,6,7-tetrahydro-4H-indol-4-one], the IC50 turned out to be 312 nM.

For the compound `COc1cnccc1-c1[nH]c2c(c1Nc1ccccc1)C(=O)CC(C)(C)C2` [Example 403, 2-(3-methoxypyridin-4-yl)-6,6-dimethyl-3-(phenylamino)-1,5,6,7-tetrahydro-4H-indol-4-one], the IC50 stood at 9.3 nM.

As to `CCOc1cnccc1-c1[nH]c2c(c1Nc1ccccc1)C(=O)CC(C)(C)C2` [Example 404, 2-(3-ethoxypyridin-4-yl)-6,6-dimethyl-3-(phenylamino)-1,5,6,7-tetrahydro-4H-indol-4-one], the IC50 is 11.7 nM.

For the compound `CCCOc1cnccc1-c1[nH]c2c(c1Nc1ccccc1)C(=O)CC(C)(C)C2` [Example 405, 6,6-dimethyl-3-(phenylamino)-2-(3-propoxypyridin-4-yl)-1,5,6,7-tetrahydro-4H-indol-4-one], the IC50 was 8.4 nM.

`CC(C)Oc1cnccc1-c1[nH]c2c(c1Nc1ccccc1)C(=O)CC(C)(C)C2` [Example 406, 6,6-dimethyl-3-(phenylamino)-2-[3-(propan-2-yloxy)pyridin-4-yl]-1,5,6,7-tetrahydro-4H-indol-4-one]: the IC50 stood at 53.7 nM.

For `CC1(C)CC(=O)c2c([nH]c(-c3ccncc3OC(C)(C)C)c2Nc2ccccc2)C1` [Example 407, 2-(3-tert-butoxypyridin-4-yl)-6,6-dimethyl-3-(phenylamino)-1,5,6,7-tetrahydro-4H-indol-4-one], the 50% inhibitory concentration (IC50) was found to be 600 nM.

As for `CC1(C)CC(=O)c2c([nH]c(-c3ccncc3OCC(F)F)c2Nc2ccccc2)C1` [Example 408, 2-[3-(2,2-difluoroethoxy)pyridin-4-yl]-6,6-dimethyl-3-(phenylamino)-1,5,6,7-tetrahydro-4H-indol-4-one], the IC50 was found to be 6.42 nM.

As for `CC1(C)CC(=O)c2c([nH]c(-c3ccncc3OCCO)c2Nc2ccccc2)C1` [Example 409, 2-[3-(2-hydroxyethoxy)pyridin-4-yl]-6,6-dimethyl-3-(phenylamino)-1,5,6,7-tetrahydro-4H-indol-4-one], the IC50 was determined as 9.63 nM.

Turning to `COCCOc1cnccc1-c1[nH]c2c(c1Nc1ccccc1)C(=O)CC(C)(C)C2` [Example 410, 2-[3-(2-methoxyethoxy)pyridin-4-yl]-6,6-dimethyl-3-(phenylamino)-1,5,6,7-tetrahydro-4H-indol-4-one], the IC50 turned out to be 3.55 nM.

For the compound `CC1(C)CC(=O)c2c([nH]c(-c3ccncc3OCC3CC3)c2Nc2ccccc2)C1` [Example 411, 2-[3-(cyclopropylmethoxy)pyridin-4-yl]-6,6-dimethyl-3-(phenylamino)-1,5,6,7-tetrahydro-4H-indol-4-one], the half-inhibitory concentration (IC50) came out at 6.86 nM.

Regarding `CC1(C)CC(=O)c2c([nH]c(-c3ccncc3OCC(F)(F)F)c2Nc2ccccc2)C1` [Example 412, 6,6-dimethyl-3-(phenylamino)-2-[3-(2,2,2-trifluoroethoxy)pyridin-4-yl]-1,5,6,7-tetrahydro-4H-indol-4-one], the IC50 is 28.4 nM.
